# Experimental data: publication PMC11225352, “A multicenter, randomized, double-blind, placebo-controlled ascending dose study to evaluate the safety, tolerability, pharmacokinetics (PK) and pharmacodynamic (PD) effects of Posiphen in subjects with early Alzheimer’s Disease” (Alzheimer's Research & Therapy, 2024)
# Experiments:
# Aβ38 [1] = experiment: SILK analysis of CSF Aβ38 (fractional synthesis rate); type: in vivo, human; conditions: after 21 days
# Experimental: (§1) For biochemical analysis to derive data for SILK, ^13C6-leucine was analyzed in plasma and CSF by mass spectrometry, and Aβ peptides in CSF were analyzed by immunoprecipitation-mass spectrometry (IP-MS) as previously described, by C2N Diagnostics (St Louis, MO). CSF levels of sAPPα, sAPPβ, Aβ38, 40 and 42 were analyzed by the ADCS Biomarker Core using Mesoscale Discovery (MSD) electrochemiluminescent assays (Mesoscale Discovery, Rockville, MD). Levels of Posiphen and its N1 and N8 metabolites in plasma and CSF were measured by Charles River Laboratories (Montreal, CA) by high-performance liquid chromatographic mass spectrometry, with use of deuterated Posiphen (procured by Charles River Laboratories) as an internal standard.
# For SILK, the fraction of labeled Aβ for Aβ38, 40, and 42 during 36 h after administration of study drug for each subject was calculated, as described. The FSR measures were calculated by fitting a line to the upslope of the CSF Aβ labeling data. It was assumed that the upslope occurred between hours 6–16 h after the start of confinement. […] The percentage of newly synthesized and degraded Aβ was estimated over 36 h by multiplying the […] concentration of Aβ measured at the start of confinement (i.e. at catheter placement; time = 0) by the percentage of Aβ that contains ^13C6-leucine at each time point. […]
# APP = experiment: Post hoc comprehensive compartmental modeling of APP production rate from SILK data; type: in vivo, human
# Experimental: For SILK, the fraction of labeled Aβ for Aβ38, 40, and 42 during 36 h after administration of study drug for each subject was calculated, as described. The FSR measures were calculated by fitting a line to the upslope of the CSF Aβ labeling data. It was assumed that the upslope occurred between hours 6–16 h after the start of confinement. FSR for treated and untreated subjects were compared by analysis of variance (ANOVA). The percentage of newly synthesized and degraded Aβ was estimated over 36 h by multiplying the […] concentration of Aβ measured at the start of confinement (i.e. at catheter placement; time = 0) by the percentage of Aβ that contains ^13C6-leucine at each time point. This can be used to estimate the AUC of the drug for decreasing the amount of newly produced Aβ [24]. As a post hoc analysis, the FSR measurement was also performed with different assumptions: the timeframe for measuring the upslope was automatically detected based on the slope of the SILK curve (see supplementary materials for method and code). As an additional post hoc analysis, a newer model for SILK that take into count the multiple compartments and CSF and other spaces involved in APP metabolism was also used to estimate APP production rates, as described below.
# APP and Aβ production and clearance rates were determined using a recently described comprehensive model. The model accounts for the bi-hourly withdrawal of 6 mL of CSF, which is known to alter the lumbar CSF concentration of Aβ [25]. The model estimates rates of APP production, enzymatic production of Aβ, transport of Aβ from interstitial fluid (ISF) to CSF, enzymatic degradation of Aβ, blood-brain barrier transport of Aβ, as well as CSF mixing throughout the subarachnoid space (SAS) and clearance of CSF from cranial and spinal subarachnoid space (SAS). For the DISCOVER trial, MRI volumetric scans were not available, so CSF volumes (cranial, cisternal and ventricular) were estimated based on the subject’s age using data from the previous study (see Supplementary Materials). […]
# Aβ38 [2] = experiment: CSF Aβ38 level, screening to day 21 (MSD immunoassay); type: in vivo, human; conditions: ANOVA with age and sex as covariates; p = 0.47
# Experimental: as §1
# (§2) Changes in CSF biomarkers from the screening to confinement (sample at time of placement of catheter) were compared in the treatment and placebo groups by ANOVA, with models that included age, sex and baseline MMSE, and further analysis stratified by treatment dose. A similar approach was taken to analyze changes in MMSE, ADAS-cog and NPI. Data were analyzed using R (version 4.2.2).
# Aβ42 = experiment: CSF Aβ42 level, screening to day 21 (MSD immunoassay); type: in vivo, human; conditions: ANOVA with age and sex as covariates; p = 0.33
# Experimental: as §1, §2
# sAPPα = experiment: CSF sAPPα level, screening to day 21 (MSD immunoassay); type: in vivo, human; conditions: ANOVA with age and sex as covariates; p = 0.38
# Experimental: as §1, §2
# cholinesterase = system: cholinesterase; parameters: method as in PMID 11404470; conditions: cited from earlier work
smiles,measurement,setting,value
CN1CC[C@]2(C)c3cc(OC(=O)Nc4ccccc4)ccc3N(C)[C@H]12 [Posiphen],effect on FSR estimates for Aβ38 vs. placebo,Aβ38 [1],no significant effect
same,"APP production, placebo vs 120 mg per day group",APP; model with pre-drug lumbar CSF concentration as covariate,showed significance
same,APP production rate,APP; single 180 mg per day subject,low
same,APP production rates,"APP; subjects receiving 120 or 180 mg per day, differences not significant by non-parametric analysis",trended lower
same,"CSF Aβ38, Treatment difference (Posiphen – placebo)",Aβ38 [2],-0.202 (0.27) p = 0.47 pg/mL
same,"CSF Aβ42, Treatment difference (Posiphen – placebo)",Aβ42,-0.104 (0.102) p = 0.33 pg/mL
same,"CSF sAPPα, Treatment difference (Posiphen – placebo)",sAPPα,9.99 (10.8) p = 0.38 pg/mL
same,anticholinesterase activity,cholinesterase,does not
